Assay results from US20240025903A1, “Bicyclic Compounds and Uses Thereof for the Treatment of Diseases” (Athira Pharma, Inc., priority 2020, published 2024).
Like-named read-outs stand apart in the source and are kept apart here.

What was measured:
[1] = system: scopolamine-induced spatial memory deficit in rats; assay: Scopolamine-induced spatial memory deficit in the Morris water maze (compound 1a); format: in vivo; conditions: rat, scopolamine 2 mg/kg IP, escape latency over 5 days, post-test p-value
Description: Exemplary compound 1a was evaluated for its ability to reverse chemically-induced spatial memory deficits in rats in the Morris water maze. The water maze consists of a large round tank (diameter 1.5 m) filled with 23-26° C. water to a depth of −30 cm and the water was clouded with white paint. A round platform was fixed such that it rested 2-3 cm below the surface of the water. High-contrast visual cues were placed around the tank to aid spatial orientation of test animals. Testing consisted of placing an animal into the water facing the tank wall at one of three randomly assigned starting locations and allowing the animal to swim and search for the hidden platform for up to 90 seconds. The time taken for the animal to locate the platform was recorded as the escape latency. Animals were tested 5 times per day with a 30 second rest period between trials. Testing was completed for a total of 5 consecutive days.
Animals were divided into groups (N=12 per group) depending on treatment. Control animals received only empty vehicle. Scopolamine groups received 2 mg/kg scopolamine dissolved in sterile saline by intraperitoneal (IP) injection 30 minutes prior to testing. Test compound groups received test compound at various concentrations by oral gavage (PO) dissolved in 78% sterile saline, 20% polyethylene glycol (PEG-400), and 2% DMSO 40 minutes prior to testing. Escape latencies were recorded for each animal for 5 trials each day for 5 consecutive days. Changes in escape latency curves were statistically analyzed by 2-way ANOVA with Bonferoni post-test.

[2] = Oral availability calculation; format: in vivo, Sprague-Dawley rats; conditions: both sexes, Sprague-Dawley, plasma; rat, dose corrected AUC PO / dose corrected AUC IV x 100
From the text: Oral bioavailability is critical to developing small molecule therapeutics for oral administration. Calculations of oral bioavailability (% F) are accomplished by comparing in vivo pharmacokinetic data (Example B7) using IV dosing as the maximum possible exposure and determining the exposure rate after PO administration. In these studies, dose corrected AUC from PO administration was divided by dose corrected AUC from IV administration and multiplied by 100 to yield the % F. Results are shown in Table 9.

In vivo pharmacokinetics = assay: In vivo pharmacokinetics; parameters: species or system Sprague-Dawley rats; conditions: both sexes, Sprague-Dawley, rat; for Tmax: plasma; for AUC: dose-corrected plasma AUC; for Cmax: dose-corrected plasma Cmax
Description: Administration of exemplary compounds by selected routes followed by blood collection and compound quantification in plasma was used to determine the pharmacokinetic (PK) profile of the compounds. Compounds were administered to mixed-sex Sprague-Dawley rats of at least 250 grams by dissolving the test compound in DMSO and then diluting the compound into an appropriate vehicle, either saline or saline and poly-ethylene glycol. Dosing was accomplished by either tail vein puncture (IV) or oral gavage (PO), and animals were administered compound according to their weight at 1 mL/kg. At selected intervals following administration (10, 20, 40, 60, 120, and 360 minutes), blood was collected by tail vein blood draw. Whole blood was then processed by centrifugation to produce plasma. Compound content in plasma samples was quantified by LC-MS/MS and compared to an internal standard and standard curves to determine concentration accurately. Plasma concentrations were then averaged for each time point and plotted as a function of time. Area under the curve was calculated by integration of the curve, Cmax was the highest concentration achieved in plasma, and Tmax was determined by the timing of Cmax.

[3] = system: scopolamine-induced spatial memory deficit in rats; assay: Scopolamine-induced spatial memory deficit in the Morris water maze (compounds 2a and 6a); format: in vivo; conditions: rat, scopolamine 3 mg/kg IP, escape latency over 8 days, post-test p-value
Description: Exemplary compounds 2a and 6a were evaluated for their ability to reverse chemically-induced spatial memory deficits in rats in the Morris water maze. The water maze consists of a large round tank (diameter 2.1 m) filled with 26-28° C. water to a depth of −30 cm and the water was clouded with white paint. A round platform (13 cm diameter) was fixed such that it rested 2-3 cm below the surface of the water. High-contrast visual cues were placed around the tank to aid spatial orientation of test animals. Testing consisted of placing an animal into the water facing the tank wall at one of three randomly assigned starting locations and allowing the animal to swim and search for the hidden platform for up to 120 seconds. The time taken for the animal to locate the platform was recorded as the escape latency. Animals were tested 5 times per day with a 30 second rest period between trials. Testing was completed for a total of 8 consecutive days.
Animals were divided into groups (N=8 per group) depending on treatment. Control animals received only empty vehicle. Scopolamine groups received 3 mg/kg scopolamine dissolved in sterile saline by intraperitoneal (IP) injection 30 minutes prior to testing. Test compound groups received test compound at various concentrations by oral gavage (PO) dissolved in 48% sterile saline, 50% polyethylene glycol (PEG-400), and 2% DMSO 40 minutes prior to testing. Escape latencies were recorded for each animal for 5 trials each day for 8 consecutive days. Changes in escape latency curves were statistically analyzed by 2-way ANOVA with Bonferoni post-test.

[4] = IV (tail vein), read-out: TMAX IV
[5] = PO (oral gavage), read-out: TMAX PO
[6] = IV (tail vein), read-out: AUC IV
[7] = IV (tail vein), read-out: CMAX IV
[8] = PO (oral gavage), read-out: AUC PO
[9] = PO (oral gavage), read-out: CMAX PO

SMILES	Cognitive Improvement ([1]; 0.5 mg/kg PO)	Cognitive Improvement ([1]; 2 mg/kg PO)	Cognitive Improvement ([1]; 8 mg/kg PO)	bioavailability [2]	Tmax (In vivo pharmacokinetics; [4])	Tmax (In vivo pharmacokinetics; [5])	AUC (In vivo pharmacokinetics; [6])	Cmax (In vivo pharmacokinetics; [7])	AUC (In vivo pharmacokinetics; [8])	Cmax (In vivo pharmacokinetics; [9])	Cognitive Improvement ([3]; 0.1 mg/kg PO)	Cognitive Improvement ([3]; 1 mg/kg PO)	Cognitive Improvement ([3]; 10 mg/kg PO)
CCC(C)CN1CC2N(C(=O)c3ccc(C(F)(F)F)cc3)CCC(=O)N2[C@@H](C)C1=O (stereo partly drawn) [Compound 1a]	+ (+ indicates post-test p-value between 0.06 and 0.05)	− (− indicates post-test p-value above 0.06)	− (− indicates post-test p-value above 0.06)	25 to 50%	< 30 min	30 to 60 min	100 to 999 ng·h/mL	1000 to 3000 ng/mL	100 to 999 ng·h/mL	1 to 100 ng/mL	–	–	–
CCC(C)CN1CC2N(C(=O)c3ccc(OC(F)F)cc3)CCC(=O)N2[C@@H](C)C1=O (stereo partly drawn) [Compound 2a]	–	–	–	25 to 50%	< 30 min	30 to 60 min	1000 to 3000 ng·h/mL	1000 to 3000 ng/mL	100 to 999 ng·h/mL	100 to 999 ng/mL	− (− indicates post-test p-value above 0.06)	+++ (+++ indicates post-test p-value below 0.01)	− (− indicates post-test p-value above 0.06)
CCC(C)CN1CC2N(Cc3ccc(C(F)(F)F)cc3)CCC(=O)N2[C@@H](C)C1=O (stereo partly drawn) [Compound 5a]	–	–	–	1 to 25%	< 30 min	30 to 60 min	100 to 999 ng·h/mL	100 to 999 ng/mL	1 to 100 ng·h/mL	1 to 100 ng/mL	–	–	–
CCC(C)CN1CC2N(Cc3ccc(OC(F)F)cc3)CCC(=O)N2[C@@H](C)C1=O (stereo partly drawn) [Compound 6a]	–	–	–	1 to 25%	< 30 min	30 to 60 min	1000 to 3000 ng·h/mL	1000 to 3000 ng/mL	1 to 100 ng·h/mL	1 to 100 ng/mL	–	− (− indicates post-test p-value above 0.06)	++ (++ indicates post-test p-value between 0.05 and 0.01)
CCC(C)CN1CC2N(Cc3ccc(O)nc3)CCC(=O)N2[C@@H](C)C1=O (stereo partly drawn) [Compound 7a]	–	–	–	< 1%	< 30 min	30 to 60 min	> 3000 ng·h/mL	> 3000 ng/mL	1 to 100 ng·h/mL	1 to 100 ng/mL	–	–	–
CCC(C)CN1CC2N(C(=O)c3ccc(F)cc3)CCC(=O)N2C(C)C1=O (stereo not drawn) [Compound 11, 1-(4-fluorobenzoyl)-6-methyl-8-(2-methylbutyl)hexahydro-4H-pyrazino[1,2-a]pyrimidine-4,7(6H)-dione]	–	–	–	25 to 50%	< 30 min	< 30 min	1000 to 3000 ng·h/mL	100 to 999 ng/mL	100 to 999 ng·h/mL	100 to 999 ng/mL	–	–	–
CCC(C)CN1CC2N(C(=O)c3ccc(C(F)(F)F)c(Cl)c3)CCC(=O)N2C(C)C1=O (stereo not drawn) [Compound 12, 1-(3-chloro-4-(trifluoromethyl)benzoyl)-6-methyl-8-(2-methylbutyl)hexahydro-4H-pyrazino[1,2-a]pyrimidine-4,7(6H)-dione]	–	–	–	25 to 50%	< 30 min	> 60 min	100 to 999 ng·h/mL	100 to 999 ng/mL	100 to 999 ng·h/mL	1 to 100 ng/mL	–	–	–
CC1C(=O)N(CC2CCC2)CC2N(C(=O)c3ccc(OC(F)F)cc3)CCC(=O)N12 (stereo not drawn) [Compound 14]	–	–	–	> 50%	< 30 min	> 60 min	1000 to 3000 ng·h/mL	100 to 999 ng/mL	1000 to 3000 ng·h/mL	100 to 999 ng/mL	–	–	–
CC1C(=O)N(CCC2CCC2)CC2N(C(=O)c3ccc(C(F)(F)F)cc3)CCC(=O)N12 (stereo not drawn) [Compound 20]	–	–	–	> 50%	< 30 min	> 60 min	1000 to 3000 ng·h/mL	1000 to 3000 ng/mL	1000 to 3000 ng·h/mL	100 to 999 ng/mL	–	–	–
C=CCCN1CC2N(C(=O)c3ccc(C(F)(F)F)cc3)CCC(=O)N2C(C)C1=O (stereo not drawn) [Compound 22]	–	–	–	25 to 50%	< 30 min	30 to 60 min	1000 to 3000 ng·h/mL	100 to 999 ng/mL	100 to 999 ng·h/mL	100 to 999 ng/mL	–	–	–
